#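 Test compounds were applied to cells in 96-well plates for 48 hours at 5 doses. GI50: concentration for 50% inhibition of growth.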 Activity calls are given as the source filed them. No stated cut-off is given here; in the data, active = GI50 up to about 1.1 µM and inactive = higher.
# Columns and labels:
# Test in all cases: growth of human tumour cells (NCI), 48 h
# A498 = tested on: A498
# HOP-62 = tested on: HOP-62
# DMS-114 = tested on: DMS-114
# UO-31 = tested on: UO-31
# SNB-78 = tested on: SNB-78
# MOLT-4 = tested on: MOLT-4
# ACHN = tested on: ACHN
# LXFL 529 = tested on: LXFL 529
# CAKI-1 = tested on: CAKI-1
# K562 = tested on: K562
# HCC 2998 = tested on: HCC 2998
# SK-OV-3 = tested on: SK-OV-3
# SK-MEL-5 = tested on: SK-MEL-5
# 786-0 = tested on: 786-0
# HT-29 = tested on: HT-29
# SF-539 = tested on: SF-539
# M19-MEL = tested on: M19-MEL
# COLO 205 = tested on: COLO 205
# NCI-H460 = tested on: NCI-H460
# TK-10 = tested on: TK-10
# SF-295 = tested on: SF-295
# SNB-75 = tested on: SNB-75
# SN12C = tested on: SN12C
# CCRF-CEM = tested on: CCRF-CEM
# SF-268 = tested on: SF-268
# SNB-19 = tested on: SNB-19
# LOX IMVI = tested on: LOX IMVI
# EKVX = tested on: EKVX
# RPMI-8226 = tested on: RPMI-8226
# KM12 = tested on: KM12
# KM-20L2 = tested on: KM-20L2
# UACC-257 = tested on: UACC-257
# DMS-273 = tested on: DMS-273
# OVCAR-3 = tested on: OVCAR-3
# OVCAR-4 = tested on: OVCAR-4
# HCT-116 = tested on: HCT-116
# NCI-H23 = tested on: NCI-H23
# NCI-H226 = tested on: NCI-H226
# U-251 = tested on: U-251
# HCT-15 = tested on: HCT-15
# HOP-18 = tested on: HOP-18
# A549 = tested on: A549
# M14 = tested on: M14
# HL-60 = tested on: HL-60
# RXF 393 = tested on: RXF 393
# IGROV-1 = tested on: IGROV-1
# OVCAR-8 = tested on: OVCAR-8
# UACC-62 = tested on: UACC-62
# SK-MEL-2 = tested on: SK-MEL-2
# DLD-1 = tested on: DLD-1
# SW-620 = tested on: SW-620
# NCI-H522 = tested on: NCI-H522
# SK-MEL-28 = tested on: SK-MEL-28
# OVCAR-5 = tested on: OVCAR-5
# Malme-3M = tested on: Malme-3M
# HOP-92 = tested on: HOP-92
smiles,measurement,setting,value
COC(=O)C1=C(O)C(O)=C(C(=O)OC)C1,GI50,A498,> 100 µM (inactive)
same,GI50,HOP-62,> 100 µM (inactive)
same,GI50,DMS-114,> 100 µM (inactive)
same,GI50,UO-31,> 100 µM (inactive)
same,GI50,SNB-78,> 100 µM (inactive)
same,GI50,MOLT-4,> 100 µM (inactive)
same,GI50,ACHN,> 100 µM (inactive)
same,GI50,LXFL 529,> 100 µM (inactive)
same,GI50,CAKI-1,> 100 µM (inactive)
same,GI50,K562,> 100 µM (inactive)
same,GI50,HCC 2998,> 100 µM (inactive)
same,GI50,SK-OV-3,> 100 µM (inactive)
same,GI50,SK-MEL-5,> 100 µM (inactive)
same,GI50,786-0,> 100 µM (inactive)
same,GI50,HT-29,> 100 µM (inactive)
same,GI50,SF-539,> 100 µM (inactive)
same,GI50,M19-MEL,> 100 µM (inactive)
same,GI50,COLO 205,> 100 µM (inactive)
same,GI50,NCI-H460,> 100 µM (inactive)
same,GI50,TK-10,> 100 µM (inactive)
same,GI50,SF-295,> 100 µM (inactive)
same,GI50,SNB-75,> 100 µM (inactive)
same,GI50,SN12C,> 100 µM (inactive)
same,GI50,CCRF-CEM,> 100 µM (inactive)
same,GI50,SF-268,> 100 µM (inactive)
same,GI50,SNB-19,> 100 µM (inactive)
same,GI50,LOX IMVI,> 100 µM (inactive)
same,GI50,EKVX,> 100 µM (inactive)
same,GI50,RPMI-8226,> 100 µM (inactive)
same,GI50,KM12,> 100 µM (inactive)
same,GI50,KM-20L2,> 100 µM (inactive)
same,GI50,UACC-257,> 100 µM (inactive)
same,GI50,DMS-273,> 100 µM (inactive)
same,GI50,OVCAR-3,> 100 µM (inactive)
same,GI50,OVCAR-4,> 100 µM (inactive)
same,GI50,HCT-116,> 100 µM (inactive)
same,GI50,NCI-H23,> 100 µM (inactive)
same,GI50,NCI-H226,> 100 µM (inactive)
same,GI50,U-251,> 100 µM (inactive)
same,GI50,HCT-15,> 100 µM
same,GI50,HOP-18,> 100 µM (inactive)
same,GI50,A549,> 100 µM (inactive)
same,GI50,M14,> 100 µM (inactive)
same,GI50,HL-60,> 100 µM (inactive)
same,GI50,RXF 393,> 100 µM (inactive)
same,GI50,IGROV-1,> 100 µM (inactive)
same,GI50,OVCAR-8,> 100 µM (inactive)
same,GI50,UACC-62,0.612 µM (active)
same,GI50,SK-MEL-2,> 100 µM (inactive)
same,GI50,DLD-1,> 100 µM (inactive)
same,GI50,SW-620,> 100 µM (inactive)
same,GI50,NCI-H522,> 100 µM (inactive)
same,GI50,SK-MEL-28,> 100 µM (inactive)
same,GI50,OVCAR-5,> 100 µM (inactive)
same,GI50,Malme-3M,> 100 µM (inactive)
same,GI50,HOP-92,> 100 µM (inactive)

# Reference: ChEMBL document CHEMBL1201862, “PubChem BioAssay data set” (2004)
